Source: ChEMBL document CHEMBL4831514, “Novel betulin dicarboxylic acid ester derivatives as potent antiviral agents: Design, synthesis, biological evaluation, structure-activity relationship and in-silico study” (Eur J Med Chem, 2021)
Calls of active or inactive are those of the source. No cut-off for these calls is given here.

What follows are compounds tested on Vesicular stomatitis virus (assay: Antiviral activity against Vesicular stomatitis virus Indiana infected in A549 cells assessed as inhibition of viral adsorption at early stage of replication treated for 1 hr during viral infection followed by replacement with fresh medium and measured after 48 hrs by MTT assay).
Type: functional, organism-based
With C=C(C)[C@@H]1CC[C@]2(COC(=O)c3ccccc3C(=O)O)CC[C@]3(C)[C@H](CC[C@@H]4[C@@]5(C)CC[C@H](O)C(C)(C)[C@@H]5CC[C@]43C)[C@@H]12 the Activity was “inactive”.
In the case of C=C(C)[C@@H]1CC[C@]2(COC(=O)/C=C/C(=O)O)CC[C@]3(C)[C@H](CC[C@@H]4[C@@]5(C)CC[C@H](O)C(C)(C)[C@@H]5CC[C@]43C)[C@@H]12, the Activity is reported as “inactive”.
In the case of C#CC1(NC(=O)c2ccccc2C(=O)OC[C@]23CC[C@@H](C(=C)C)[C@@H]2[C@H]2CC[C@@H]4[C@@]5(C)CC[C@H](O)C(C)(C)[C@@H]5CC[C@@]4(C)[C@]2(C)CC3)CCCCC1, the Activity is reported as “inactive”.
C=C(C)[C@@H]1CC[C@]2(COC(=O)CCCC(=O)O)CC[C@]3(C)[C@H](CC[C@@H]4[C@@]5(C)CC[C@H](O)C(C)(C)[C@@H]5CC[C@]43C)[C@@H]12 was tested, and the Activity was “inactive”.
In the case of C=C(C)[C@@H]1CC[C@]2(COC(=O)CCCCCCCCCC(=O)N3CCOCC3)CC[C@]3(C)[C@H](CC[C@@H]4[C@@]5(C)CC[C@H](O)C(C)(C)[C@@H]5CC[C@]43C)[C@@H]12, the Activity is reported as “inactive”.
For C#CC1(NC(=O)CCCC(=O)OC[C@]23CCC(C(=C)C)[C@@H]2[C@H]2CC[C@@H]4[C@@]5(C)CC[C@H](O)C(C)(C)[C@@H]5CC[C@@]4(C)[C@]2(C)CC3)CCCCC1 (single isomer, unassigned), the Activity was “inactive”.
For C#CC1(NC(=O)CCC(=O)OC[C@]23CC[C@@H](C(=C)C)[C@@H]2[C@H]2CC[C@@H]4[C@@]5(C)CC[C@H](O)C(C)(C)[C@@H]5CC[C@@]4(C)[C@]2(C)CC3)CCCCC1, the Activity was “inactive”.
In the case of C=C(C)[C@@H]1CC[C@]2(COC(=O)CCCC(=O)N3CCOCC3)CC[C@]3(C)[C@H](CC[C@@H]4[C@@]5(C)CC[C@H](O)C(C)(C)[C@@H]5CC[C@]43C)[C@@H]12, the Activity is reported as “inactive”.
In the case of C=C(C)[C@@H]1CC[C@]2(COC(=O)c3cccc(C(=O)N4CCOCC4)c3)CC[C@]3(C)[C@H](CC[C@@H]4[C@@]5(C)CC[C@H](O)C(C)(C)[C@@H]5CC[C@]43C)[C@@H]12, the Activity is reported as “inactive”.
C=C(C)[C@@H]1CC[C@]2(COC(=O)c3cccc(C(=O)N4CCSCC4)c3)CC[C@]3(C)[C@H](CC[C@@H]4[C@@]5(C)CC[C@H](O)C(C)(C)[C@@H]5CC[C@]43C)C12 (single isomer, unassigned) was tested, and the Activity was “inactive”.
For C#CC1(NC(=O)CCCCCCCCCC(=O)OC[C@]23CC[C@@H](C(=C)C)[C@@H]2[C@H]2CCC4[C@@]5(C)CC[C@H](O)C(C)(C)[C@@H]5CC[C@@]4(C)[C@]2(C)CC3)CCCCC1 (single isomer, unassigned), the Activity was “inactive”.
For C=C(C)[C@@H]1CC[C@]2(COC(=O)CCC(=O)N3CCOCC3)CC[C@]3(C)[C@H](CC[C@@H]4[C@@]5(C)CC[C@H](O)C(C)(C)[C@@H]5CC[C@]43C)[C@@H]12, the Activity was “inactive”.
For C#CCNC(=O)CCCCCCCCCC(=O)OC[C@]12CC[C@@H](C(=C)C)[C@@H]1[C@H]1CC[C@@H]3[C@@]4(C)CC[C@H](O)C(C)(C)[C@@H]4CC[C@@]3(C)[C@]1(C)CC2, the Activity was “inactive”.
For C=C(C)[C@@H]1CC[C@]2(COC(=O)c3ccccc3C(=O)N3CCSCC3)CC[C@]3(C)[C@H](CC[C@@H]4[C@@]5(C)CC[C@H](O)C(C)(C)[C@@H]5CC[C@]43C)[C@@H]12, the Activity was “inactive”.
With C=C(C)[C@@H]1CC[C@]2(COC(=O)c3ccccc3C(=O)N3CCOCC3)CC[C@]3(C)[C@H](CC[C@@H]4[C@@]5(C)CC[C@H](O)C(C)(C)[C@@H]5CC[C@]43C)[C@@H]12 the Activity was “inactive”.
In the case of C=C(C)[C@@H]1CC[C@]2(COC(=O)CCCC(=O)N3CCCCC3)CC[C@]3(C)[C@H](CC[C@@H]4[C@@]5(C)CC[C@H](O)C(C)(C)[C@@H]5CC[C@]43C)[C@@H]12, the Activity is reported as “inactive”.
In the case of C#CC1(NC(=O)c2cccc(C(=O)OC[C@]34CC[C@@H](C(=C)C)[C@@H]3[C@H]3CC[C@@H]5[C@@]6(C)CC[C@H](O)C(C)(C)[C@@H]6CC[C@@]5(C)[C@]3(C)CC4)c2)CCCCC1, the Activity is reported as “inactive”.
For C#CCNC(=O)c1cccc(C(=O)OC[C@]23CC[C@@H](C(=C)C)[C@@H]2[C@H]2CC[C@@H]4C5(C)CC[C@H](O)C(C)(C)[C@@H]5CC[C@@]4(C)[C@]2(C)CC3)c1 (single isomer, unassigned), the Activity was “inactive”.
In the case of C=C(C)[C@@H]1CC[C@]2(COC(=O)/C=C(\C)C(=O)O)CC[C@]3(C)[C@H](CC[C@@H]4[C@@]5(C)CC[C@H](O)C(C)(C)[C@@H]5CC[C@]43C)[C@@H]12, the Activity is reported as “inactive”.
For C=C(C)[C@@H]1CC[C@]2(COC(=O)/C=C(\C)C(=O)N3CCCCC3)CC[C@]3(C)[C@H](CC[C@@H]4[C@@]5(C)CC[C@H](O)C(C)(C)[C@@H]5CC[C@]43C)[C@@H]12, the Activity was “inactive”.
C=C(C)[C@@H]1CC[C@]2(COC(=O)/C=C(\C)C(=O)N3CCOCC3)CC[C@]3(C)[C@H](CC[C@@H]4[C@@]5(C)CC[C@H](O)C(C)(C)[C@@H]5CC[C@]43C)[C@@H]12 was tested, and the Activity was “inactive”.
NC(=O)c1ncn([C@@H]2O[C@H](CO)[C@@H](O)[C@H]2O)n1 [RIBAVIRIN] was tested, and the Activity was “inactive”.
With C=C(C)[C@@H]1CC[C@]2(COC(=O)/C=C(\C)C(=O)N3CCSCC3)CC[C@]3(C)[C@H](CC[C@@H]4[C@@]5(C)CC[C@H](O)C(C)(C)[C@@H]5CC[C@]43C)[C@@H]12 the Activity was “inactive”.
In the case of C#CCNC(=O)CCC(=O)OC[C@]12CC[C@@H](C(=C)C)C1[C@H]1CC[C@@H]3[C@@]4(C)CC[C@H](O)C(C)(C)[C@@H]4CC[C@@]3(C)[C@]1(C)CC2 (single isomer, unassigned), the Activity is reported as “inactive”.
For Nc1ccn(C[C@@H](CO)OCP(=O)(O)O)c(=O)n1.O.O [CIDOFOVIR], the Activity was “inactive”.
For C#CC1(NC(=O)/C(C)=C/C(=O)OC[C@]23CC[C@@H](C(=C)C)[C@@H]2[C@H]2CC[C@@H]4[C@@]5(C)CC[C@H](O)C(C)(C)[C@@H]5CC[C@@]4(C)[C@]2(C)CC3)CCCCC1, the Activity was “inactive”.
C=C(C)[C@@H]1CC[C@]2(COC(=O)CCC(=O)N3CCSCC3)CC[C@]3(C)[C@H](CC[C@@H]4[C@@]5(C)CC[C@H](O)C(C)(C)[C@@H]5CC[C@]43C)[C@@H]12 was tested, and the Activity was “inactive”.
With C=C(C)[C@@H]1CCC2(COC(=O)CCCCCCCCCC(=O)N3CCSCC3)CC[C@]3(C)[C@H](CC[C@@H]4[C@@]5(C)CC[C@H](O)C(C)(C)[C@@H]5CC[C@]43C)[C@@H]12 (single isomer, unassigned) the Activity was “inactive”.
C=C(C)[C@@H]1CC[C@]2(COC(=O)CCCCCCCCCC(=O)O)CC[C@]3(C)[C@H](CC[C@@H]4[C@@]5(C)CC[C@H](O)C(C)(C)[C@@H]5CC[C@]43C)[C@@H]12 was tested, and the Activity was “inactive”.
With C=C(C)[C@@H]1CC[C@]2(COC(=O)CCC(=O)N3CCCCC3)CC[C@]3(C)[C@H](CC[C@@H]4[C@@]5(C)CCC(O)C(C)(C)[C@@H]5CC[C@]43C)[C@@H]12 (single isomer, unassigned) the Activity was “inactive”.
With C=C(C)[C@@H]1CC[C@]2(COC(=O)CCCC(=O)N3CCSCC3)CC[C@]3(C)[C@H](CC[C@@H]4[C@@]5(C)CC[C@H](O)C(C)(C)[C@@H]5CC[C@]43C)[C@@H]12 the Activity was “inactive”.
C=C(C)[C@@H]1CC[C@]2(CO)CC[C@]3(C)[C@H](CC[C@@H]4[C@@]5(C)CC[C@H](O)C(C)(C)[C@@H]5CC[C@]43C)[C@@H]12 [BETULIN] was tested, and the Activity was “inactive”.
In the case of Nc1nc2c(ncn2COCCO)c(=O)[nH]1 [ACYCLOVIR], the Activity is reported as “inactive”.
C=C(C)[C@@H]1CC[C@]2(COC(=O)CCCCCCCCCC(=O)N3CCCCC3)CC[C@]3(C)[C@H](CC[C@@H]4[C@@]5(C)CC[C@H](O)C(C)(C)[C@@H]5CC[C@]43C)[C@@H]12 was tested, and the Activity was “inactive”.
C=C(C)[C@@H]1CC[C@]2(COC(=O)CCC(=O)O)CC[C@]3(C)[C@H](CC[C@@H]4[C@@]5(C)CCC(O)C(C)(C)[C@@H]5CC[C@]43C)[C@@H]12 (single isomer, unassigned) was tested, and the Activity was “inactive”.
For C=C(C)[C@@H]1CC[C@]2(COC(=O)c3cccc(C(=O)N4CCCCC4)c3)CC[C@]3(C)[C@H](CC[C@@H]4[C@@]5(C)CC[C@H](O)C(C)(C)[C@@H]5CC[C@]43C)[C@@H]12, the Activity was “inactive”.
In the case of C#CCNC(=O)/C(C)=C/C(=O)OC[C@]12CC[C@@H](C(=C)C)[C@@H]1[C@H]1CC[C@@H]3[C@@]4(C)CC[C@H](O)C(C)(C)[C@@H]4CC[C@@]3(C)[C@]1(C)CC2, the Activity is reported as “inactive”.
With C=C(C)[C@@H]1CC[C@]2(COC(=O)c3ccccc3C(=O)N3CCCCC3)CC[C@]3(C)[C@H](CC[C@H]4C3(C)CC[C@H]3C(C)(C)[C@@H](O)CC[C@@]34C)[C@@H]12 (single isomer, unassigned) the Activity was “inactive”.
With C=C(C)[C@@H]1CC[C@]2(COC(=O)c3cccc(C(=O)O)c3)CC[C@]3(C)[C@H](CC[C@@H]4[C@@]5(C)CC[C@H](O)C(C)(C)[C@@H]5CC[C@]43C)[C@@H]12 the Activity was “inactive”.
In the case of C#CCNC(=O)CCCC(=O)OC[C@]12CC[C@@H](C(=C)C)[C@@H]1[C@H]1CC[C@@H]3[C@@]4(C)CC[C@H](O)C(C)(C)[C@@H]4CC[C@@]3(C)[C@]1(C)CC2, the Activity is reported as “inactive”.
With C#CCNC(=O)c1ccccc1C(=O)OC[C@]12CC[C@@H](C(=C)C)[C@@H]1[C@H]1CC[C@@H]3[C@@]4(C)CC[C@H](O)C(C)(C)[C@@H]4CC[C@@]3(C)[C@]1(C)CC2 the Activity was “inactive”.
For C=C(C)[C@@H]1CC[C@]2(COC(=O)CSCC(=O)O)CC[C@]3(C)[C@H](CC[C@@H]4[C@@]5(C)CC[C@H](O)C(C)(C)[C@@H]5CC[C@]43C)[C@@H]12, the Activity was “inactive”.
